Reference: US12440570B2, “Conjugation of MCR1 ligand with cytotoxic drugs for treating skin cancer” (ARIZONA BOARD OF REGENTS ON BEHALF OF THE UNIVERSITY OF …, priority 2019, dated 2025)
Like-named read-outs stand apart in the source and are kept apart here.

Experiments:
[1] = tested on: A375 melanoma cells; test: cells; assay type: cell-based, human; conditions: XTT, 24 h incubation, read-out: IC50, A375 melanoma cell viability
Description: A375 cells were seeded in 96 well plates at a density of around 10^5 cells per well in 95 μL of MEM medium and incubated for 24 h, Cells were treated with 5 μL of drugs in a final concentration of 0, 0.3 nM, 1 nM, 3 nM, 10 nM, 30 nM, 100 nM and 300 nM for 24 h. XTT solution was prepared by dissolving 4 mg XTT in 4 mL MEM medium. PMS solution was prepared by dissolving 3 mg of PMS in 1 mL of phosphate buffer saline (PBS). 10 μL of PMS solution was added to 4 mL of XTT solution, and 25 μL of the PMS/XTT mixture was added to each well. The plate was incubated at 37 ° C. for another 2 h culture. Absorbance was measured at 450 nm using a pQuant Universal Microplate Reader (Bio-Tek instruments, Inc., Winooski, VT). Absorbance from no-cells control was subtracted and the percentage of cell viability was calculated as the percentage of absorbance relative to cells treated with medium.

[2] = cited from earlier work
[3] = biological target: T1, human MC1R (Homo sapiens, UniProt Q01726); test: Competitive binding assay with 125I labelled NDP-α-MSH on whole cells, MC1R; conditions: for Ki: HEK293 cells overexpressing human MC1R, 125I NDP-α-MSH; for displacement of NDP-α-MSH from MC1R: within micromolar range concentration
T1 construct: expressed in transfected cells; host or cells: HEK293 (stably transfected)
T1 sequence (Q01726 whole entry): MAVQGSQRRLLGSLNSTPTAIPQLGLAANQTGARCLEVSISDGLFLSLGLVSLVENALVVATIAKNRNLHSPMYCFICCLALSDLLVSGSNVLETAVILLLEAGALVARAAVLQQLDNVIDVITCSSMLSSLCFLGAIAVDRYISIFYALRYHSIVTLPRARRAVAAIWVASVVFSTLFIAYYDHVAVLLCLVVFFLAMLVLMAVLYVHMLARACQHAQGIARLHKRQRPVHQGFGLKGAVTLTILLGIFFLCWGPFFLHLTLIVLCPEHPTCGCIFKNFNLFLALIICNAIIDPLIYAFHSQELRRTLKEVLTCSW
Description: Competitive binding assays were performed on whole cells. Stably transfected HEK293 cell lines overexpressing human MC1R, MC3R, MC4R or MC5R were seeded on 96-well plates 48 h before the assay and grown to 100,000 cells per well. For the assay, the medium was removed, and cells were washed twice with a binding buffer containing minimum essential medium with Earle's salt (MEM, GIBCO), 25 mM HEPES (pH 7.4), 0.2% bovine serum albumin, 1 mM 1,10-phenanthrolone, 0.5 mg/L leupeptin and 200 mg/L bacitracin. Cells were incubated with different concentrations of unlabeled test compounds and ^125I labelled NDP-α-MSH (PerkinElmer, 100,000 cpm/well, 0.1386 nM) for 40 min at 37° C. The medium was subsequently removed, and the cells were washed twice with the binding buffer. The cells were lysed by 50 μL of 0.1 mM NaOH and 50 μL of 1% Triton X-100. The plates were left dry overnight under the hood, and 50 μL of scintillation fluid (OptiPhase SuperMix, PerkinElmer) were added in each well. The radioactivity was measured using MicroBeta 2 microplate counter (PerkinElmer).

[4] = tested on: A375 malignant melanoma cells; test: Live-cell confocal microscopy, fluorescence uptake by A375 cells; assay type: cell-based, human
Description: (§1) 1 mL of A375 or HEK293 cell suspension (˜5×10^4 cells) were seeded in 35 mm No. 1.5 coverslip glass-bottomed microwell dish (MatTek) and cultured overnight. Cells were gently washed with PBS twice and treated with compound 2 (3 μM) with or without MT-II (30 μM) in phenol red-free, HEPES-supplemented DMEM. After incubation at 37° C. for indicated time, cells were washed three times with PBS before imaging. Images were taken with Zeiss LSM880 inverted confocal microscope with either bright field or laser at […] with 2% laser power and Plan-Apochromat 63×/1.4 Oil DIC M27 objective.

[5] = tested on: HEK293 kidney epithelial cells; test: Live-cell confocal microscopy, fluorescence uptake by HEK293 cells; assay type: cell-based; conditions: 3 μM, 2.5 h
Description: as §1

[6] = linear peptide; cited from earlier work

Compound: CC[C@@]1(O)C(=O)OCc2c1cc1n(c2=O)Cc2cc3ccccc3nc2-1 [CPT, camptothecin, reference compound]
- IC50 ([1]; Homo sapiens, A-375): 47 ± 2 nM
- solubility [2]: poor solubility

Compound: CCCC[C@H](NC(=O)CCCCCNC(=O)[C@@H](N)CSSCCOC(=O)O[C@]1(CC)C(=O)OCc2c1cc1n(c2=O)Cc2cc3ccccc3nc2-1)C(=O)N[C@H]1CC(=O)NCCCC[C@@H](C(N)=O)NC(=O)[C@H](Cc2c[nH]c3ccccc23)NC(=O)[C@H](CCCNC(=N)N)NC(=O)[C@@H](Cc2ccccc2)NC(=O)[C@H](Cc2c[nH]cn2)NC1=O [CPT-MT-II (1)]
- Ki ([3]; Ki MC1R): 57 nM
- selectivity to MC1R as compared to MC3R, MC4R and MC5R ([3]; from Ki values): 3-6 fold
- IC50 [1]: 16 nM

Compound: CCCC[C@H](NC(=O)CCCCCNC(=O)[C@@H](N)CSSCCOC(=O)Oc1ccc2c(c1)Oc1cc(O)ccc1C21OC(=O)c2ccccc21)C(=O)N[C@H]1CC(=O)NCCCC[C@@H](C(N)=O)NC(=O)[C@H](Cc2c[nH]c3ccccc23)NC(=O)[C@H](CCCNC(=N)N)NC(=O)[C@@H](Cc2ccccc2)NC(=O)[C@H](Cc2c[nH]cn2)NC1=O (some centres unmarked) [fluorescein-MT-II (2)]
- Ki ([3]; read-out: Ki MC1R): 172 nM
- displacement of NDP-α-MSH from MC1R [3]: fully displace
- displacement of NDP-α-MSH from MC1R ([3]; listed as fluorescein-MT-II): fully displace NDP-α-MSH
- fluorescence uptake by A375 cells ([4]; 3 μM with 30 μM of MT-II, 2.5 h): not observed
- fluorescence uptake by A375 cells ([4]; 3 μM, 0.5 h): No significant fluorescence uptake
- fluorescence uptake by A375 cells ([4]; 3 μM, 2.5 h): strong fluorescence
- time for release of fluorescein into A375 ([4]; confocal microscopy): at least 90 minutes
- fluorescence uptake by HEK293 cells compared to A375 cells [5]: much weaker fluorescence intensity

Compound: α-MSH
- half-life [6]: around 10 minutes
